Assay results as given in paper PMC10752118 (Therapeutic Advances in Medical Oncology, 2023).

Key:
[1] = Plasma PK, noncompartmental analysis; format: in vivo, human; conditions: for observed clearance (CL), dose dependence: 1 h IV infusion
[2] = test system: P-glycoprotein (P-gp) multidrug transporter; conditions: cited from earlier work
[3] = test system: treatment refractory HER2 over-expressing breast cancer; conditions: in combination with weekly trastuzumab and paclitaxel, nine patients; cited from earlier work
[4] = prior single-agent study; cited from earlier work
HSP90 = conditions: read-out: dissociation constant (Kd); cited from earlier work
[5] = cited from earlier work
[6] = test system: uridine diphosphate-glucoronosyltransferases; conditions: cited from earlier work
[7] = test system: patients with advanced TNBC; experiment: Phase Ib 3 + 3 dose escalation: DLT assessment, MTD and RP2D; format: in vivo, human
[8] = Day 1 (no onalespib), 80 mg/m^2 paclitaxel IV, DL1, geometric mean ± SD
[9] = Day 1 (no onalespib), 80 mg/m^2 paclitaxel IV, DL2, geometric mean ± SD
[10] = Day 1 (no onalespib), 80 mg/m^2 paclitaxel IV, DL3, geometric mean ± SD
[11] = Day 1 (no onalespib), 80 mg/m^2 paclitaxel IV, DL4, geometric mean ± SD
[12] = Day 7 (no paclitaxel), DL1, onalespib 120 mg/m^2 IV, geometric mean ± SD
[13] = Day 7 (no paclitaxel), DL2, onalespib 150 mg/m^2 IV, geometric mean ± SD
[14] = Day 7 (no paclitaxel), DL3, onalespib 200 mg/m^2 IV, geometric mean ± SD
[15] = Day 7 (no paclitaxel), DL4, onalespib 260 mg/m^2 IV, geometric mean ± SD
[16] = Day 8 (with 80 mg/m^2 paclitaxel), DL1, onalespib 120 mg/m^2 IV, geometric mean ± SD
[17] = Day 8 (with 80 mg/m^2 paclitaxel), DL2, onalespib 150 mg/m^2 IV, geometric mean ± SD
[18] = Day 8 (with 80 mg/m^2 paclitaxel), DL3, onalespib 200 mg/m^2 IV, geometric mean ± SD
[19] = Day 8 (with 80 mg/m^2 paclitaxel), DL4, onalespib 260 mg/m^2 IV, geometric mean ± SD

CC(=O)O[C@H]1C(=O)[C@@]2(C)[C@H]([C@H](OC(=O)c3ccccc3)[C@]3(O)C[C@H](OC(=O)[C@H](O)[C@@H](NC(=O)c4ccccc4)c4ccccc4)C(C)=C1C3(C)C)[C@]1(OC(C)=O)CO[C@@H]1C[C@@H]2O [paclitaxel]
observed clearance (CL), dose dependence [1]: independent of dose | CL [1, 8]: 12.6 ± 2.63 L/h/m^2 | Vz [1, 8]: 279 ± 41.9 L/m^2 | AUCinf [1, 9]: 5.59 ± 0.185 µM·h | CL [1, 9]: 16.8 ± 0.535 L/h/m^2 | Cmax [1, 9]: 4.17 ± 0.299 µM | Vz [1, 9]: 216 ± 19.3 L/m^2 | CL [1, 10]: 15.3 ± 4.77 L/h/m^2 | Cmax [1, 10]: 4.45 ± 2.28 µM | Vz [1, 10]: 206 ± 89.8 L/m^2 | CL [1, 11]: 11.9 ± 2.78 L/h/m^2 | Cmax [1, 11]: 4.68 ± 1.82 µM | Vz [1, 11]: 181 ± 46.0 L/m^2 | t1/2 ([1]; Day 8, 80 mg/m^2 paclitaxel IV with onalespib 120 mg/m^2, DL1, median (range)): 15.0 (13.1–15.4) h | AUC(0-inf) ([1]; human, plasma, intravenous, 80 mg/m^2, Mean AUCinf, range across DLs, single agent, cycle 1, day 1, 80 mg/m^2): 5.59 to 7.75 µM·h | Cmax ([1]; human, plasma, intravenous, 80 mg/m^2, Mean Cmax, range across DLs, single agent, cycle 1, day 1, 80 mg/m^2): 3.87 to 4.68 µM | AUC(0-inf) ([1]; human, plasma, intravenous, mean AUCinf, range across all four DLs, cycle 1, day 8, 80 mg/m^2 in combination with onalespib): 6.5 to 8.72 µM·h | Cmax ([1]; human, plasma, intravenous, mean Cmax, range across all four DLs, cycle 1, day 8, 80 mg/m^2 in combination with onalespib): 2.99 to 4.23 µM | AUC(0-inf) ([1]; human, plasma, iv, 80 mg/m2, AUCinf, Day 1 (no onalespib), 80 mg/m^2 paclitaxel IV, DL1, geometric mean ± SD): 7.44 ± 1.54 µM·h | AUC(0-inf) ([1]; human, plasma, iv, 80 mg/m2, AUCinf, Day 1 (no onalespib), 80 mg/m^2 paclitaxel IV, DL3, geometric mean ± SD): 6.1 ± 2.24 µM·h | AUC(0-inf) ([1]; human, plasma, iv, 80 mg/m2, AUCinf, Day 1 (no onalespib), 80 mg/m^2 paclitaxel IV, DL4, geometric mean ± SD): 7.75 ± 1.75 µM·h | half-life ([1]; human, plasma, iv, 80 mg/m2, t1/2, Day 1 (no onalespib), 80 mg/m^2 paclitaxel IV, DL2, median (range)): 9.18 h | half-life ([1]; human, plasma, iv, 80 mg/m2, t1/2, Day 1 (no onalespib), 80 mg/m^2 paclitaxel IV, DL3, median (range)): 9.06 h | half-life ([1]; human, plasma, iv, 80 mg/m2, t1/2, Day 1 (no onalespib), 80 mg/m^2 paclitaxel IV, DL4, median (range)): 10.6 h | AUC(0-inf) ([1]; human, plasma, iv, AUCinf, Day 8, 80 mg/m^2 paclitaxel IV with onalespib 120 mg/m^2, DL1, geometric mean ± SD): 7.97 ± 2.95 µM·h | AUC(0-inf) ([1]; human, plasma, iv, AUCinf, Day 8, 80 mg/m^2 paclitaxel IV with onalespib 200 mg/m^2, DL3, geometric mean ± SD): 6.47 ± 2.18 µM·h | AUC(0-inf) ([1]; human, plasma, iv, AUCinf, Day 8, 80 mg/m^2 paclitaxel IV with onalespib 260 mg/m^2, DL4, geometric mean ± SD): 8.72 ± 2.54 µM·h | Cmax ([1]; human, plasma, iv, Cmax, Day 8, 80 mg/m^2 paclitaxel IV with onalespib 120 mg/m^2, DL1, geometric mean ± SD): 2.99 ± 3.59 µM | Cmax ([1]; human, plasma, iv, Cmax, Day 8, 80 mg/m^2 paclitaxel IV with onalespib 200 mg/m^2, DL3, geometric mean ± SD): 4.23 ± 2.18 µM | half-life ([1]; human, plasma, iv, t1/2, Day 8, 80 mg/m^2 paclitaxel IV with onalespib 200 mg/m^2, DL3, median (range)): 8.67 h | half-life ([1]; human, plasma, iv, t1/2, Day 8, 80 mg/m^2 paclitaxel IV with onalespib 260 mg/m^2, DL4, median (range)): 10.7 h | interaction with P-gp [2]: substrate for MDR1 P-gp

CC(C)c1cc(-c2n[nH]c(=O)n2-c2ccc3c(ccn3C)c2)c(O)cc1O [ganetespib]
partial response [3]: 22% | stable disease [3]: 56%

CC(C)c1cc(C(=O)N2Cc3ccc(CN4CCN(C)CC4)cc3C2)c(O)cc1O [onalespib, (2,4-dihydroxy-5-isopropylphenyl)-[5-(4-methylpiperazin-1-ylmethyl)-1,3-dihydroisoindol-2-yl]methanone]
exposure (AUCinf and Cmax), dose proportionality ([1]; 120 to 260 mg/m^2): approximately dose-proportional | observed clearance (CL), dose dependence [1]: independent of dose | CL [1, 12]: 42.6 ± 4.99 L/h/m^2 | Vz [1, 12]: 344 ± 134 L/m^2 | CL [1, 13]: 51.1 ± 4.37 L/h/m^2 | Vz [1, 13]: 443 ± 23.2 L/m^2 | CL [1, 14]: 48.4 ± 29.2 L/h/m^2 | Vz [1, 14]: 522 ± 273 L/m^2 | CL [1, 15]: 41.6 ± 10.0 L/h/m^2 | Vz [1, 15]: 427 ± 102 L/m^2 | CL [1, 16]: 47.9 ± 2.03 L/h/m^2 | Vz [1, 16]: 730 ± 121 L/m^2 | CL [1, 17]: 64.3 ± 21.0 L/h/m^2 | Vz [1, 17]: 801 ± 263 L/m^2 | CL [1, 18]: 51.4 ± 14.8 L/h/m^2 | Vz [1, 18]: 717 ± 282 L/m^2 | CL [1, 19]: 45.2 ± 13.4 L/h/m^2 | Vz [1, 19]: 598 ± 208 L/m^2 | effect of combination with paclitaxel on overall exposure (AUCinf and Cmax) ([1]; cycle 1 day –7 versus day 8): no apparent changes in overall exposure | AUC(0-inf) ([1]; human, plasma, intravenous, AUCinf, range, single agent, cycle 1, day –7, all DLs (120 to 260 mg/m^2)): 4.3 to 22.7 µM·h | half-life ([1]; human, plasma, intravenous, mean t1/2, range across DLs, as a single agent only): 6.04 to 7.32 h | AUC(0-inf) ([1]; human, plasma, iv, 120 mg/m2, AUCinf, Day 7 (no paclitaxel), DL1, onalespib 120 mg/m^2 IV, geometric mean ± SD): 6.72 ± 0.688 µM·h | Cmax ([1]; human, plasma, iv, 120 mg/m2, Cmax, Day 7 (no paclitaxel), DL1, onalespib 120 mg/m^2 IV, geometric mean ± SD): 2.8 ± 0.844 µM | half-life ([1]; human, plasma, iv, 120 mg/m2, t1/2, Day 7 (no paclitaxel), DL1, onalespib 120 mg/m^2 IV, median (range)): 7.23 h | AUC(0-inf) ([1]; human, plasma, iv, 200 mg/m2, AUCinf, Day 7 (no paclitaxel), DL3, onalespib 200 mg/m^2 IV, geometric mean ± SD): 10 ± 4.35 µM·h | Cmax ([1]; human, plasma, iv, 200 mg/m2, Cmax, Day 7 (no paclitaxel), DL3, onalespib 200 mg/m^2 IV, geometric mean ± SD): 3.21 ± 2.56 µM | half-life ([1]; human, plasma, iv, 200 mg/m2, t1/2, Day 7 (no paclitaxel), DL3, onalespib 200 mg/m^2 IV, median (range)): 7.32 h | AUC(0-inf) ([1]; human, plasma, iv, 260 mg/m2, AUCinf, Day 7 (no paclitaxel), DL4, onalespib 260 mg/m^2 IV, geometric mean ± SD): 15.2 ± 3.84 µM·h | Cmax ([1]; human, plasma, iv, 260 mg/m2, Cmax, Day 7 (no paclitaxel), DL4, onalespib 260 mg/m^2 IV, geometric mean ± SD): 5.36 ± 2.8 µM | half-life ([1]; human, plasma, iv, 260 mg/m2, t1/2, Day 7 (no paclitaxel), DL4, onalespib 260 mg/m^2 IV, median (range)): 6.83 h | AUC(0-inf) ([1]; human, plasma, iv, AUCinf, Day 8 (with 80 mg/m^2 paclitaxel), DL1, onalespib 120 mg/m^2 IV, geometric mean ± SD): 6.1 ± 0.244 µM·h | AUC(0-inf) ([1]; human, plasma, iv, AUCinf, Day 8 (with 80 mg/m^2 paclitaxel), DL2, onalespib 150 mg/m^2 IV, geometric mean ± SD): 5.64 ± 2.32 µM·h | AUC(0-inf) ([1]; human, plasma, iv, AUCinf, Day 8 (with 80 mg/m^2 paclitaxel), DL3, onalespib 200 mg/m^2 IV, geometric mean ± SD): 9.46 ± 2.24 µM·h | AUC(0-inf) ([1]; human, plasma, iv, AUCinf, Day 8 (with 80 mg/m^2 paclitaxel), DL4, onalespib 260 mg/m^2 IV, geometric mean ± SD): 14 ± 4.66 µM·h | Cmax ([1]; human, plasma, iv, Cmax, Day 8 (with 80 mg/m^2 paclitaxel), DL1, onalespib 120 mg/m^2 IV, geometric mean ± SD): 2.74 ± 0.676 µM | Cmax ([1]; human, plasma, iv, Cmax, Day 8 (with 80 mg/m^2 paclitaxel), DL2, onalespib 150 mg/m^2 IV, geometric mean ± SD): 2.41 ± 1.03 µM | Cmax ([1]; human, plasma, iv, Cmax, Day 8 (with 80 mg/m^2 paclitaxel), DL3, onalespib 200 mg/m^2 IV, geometric mean ± SD): 4.64 ± 2.64 µM | Cmax ([1]; human, plasma, iv, Cmax, Day 8 (with 80 mg/m^2 paclitaxel), DL4, onalespib 260 mg/m^2 IV, geometric mean ± SD): 5.53 ± 4.5 µM | half-life ([1]; human, plasma, iv, t1/2, Day 8 (with 80 mg/m^2 paclitaxel), DL1, onalespib 120 mg/m^2 IV, median (range)): 10.5 h | half-life ([1]; human, plasma, iv, t1/2, Day 8 (with 80 mg/m^2 paclitaxel), DL2, onalespib 150 mg/m^2 IV, median (range)): 8.55 h | half-life ([1]; human, plasma, iv, t1/2, Day 8 (with 80 mg/m^2 paclitaxel), DL3, onalespib 200 mg/m^2 IV, median (range)): 9.62 h | half-life ([1]; human, plasma, iv, t1/2, Day 8 (with 80 mg/m^2 paclitaxel), DL4, onalespib 260 mg/m^2 IV, median (range)): 9.11 h | interaction with P-gp [2]: substrate and moderate inhibitor of P-gp | maximum tolerated dose [4]: 260 mg/m^2 | Kd (HSP90): 0.71 nM | water solubility [5]: High water solubility | glucuronidation substrate status [6]: substrate for glucuronidation | MTD of onalespib ([7]; combined with paclitaxel 80 mg/m^2, IV days 1, 8, 15 of 28-day cycle): 260 mg/m^2 | RP2D of onalespib ([7]; given with paclitaxel 80 mg/m^2, IV days 1, 8, 15 of 28-day cycle): 260 mg/m^2
